In ChEMBL document CHEMBL4800729 (2021):

Legend:
[1] = biological target: RAF proto-oncogene serine/threonine-protein kinase (Homo sapiens) (UniProt P04049); assay: c-RAF(h) Millipore kinase panel; settings: Compound concentration 1.0 uM
[2] = biological target: Equilibrative nucleoside transporter 1/2/3/4 (Homo sapiens) (UniProt Q99808+Q7RTT9+Q14542+Q9BZD2); settings: Compound concentration 10.0 uM
[3] = biological target: Beta-3 adrenergic receptor (Homo sapiens) (UniProt P13945); settings: Compound concentration 10.0 uM
[4] = biological target: Activated CDC42 kinase 1 (Homo sapiens) (UniProt Q07912); assay: ACK1(h) Millipore kinase panel; settings: Compound concentration 1.0 uM
Sequence of Activated CDC42 kinase 1 (Homo sapiens) (Q07912 whole entry, looked up): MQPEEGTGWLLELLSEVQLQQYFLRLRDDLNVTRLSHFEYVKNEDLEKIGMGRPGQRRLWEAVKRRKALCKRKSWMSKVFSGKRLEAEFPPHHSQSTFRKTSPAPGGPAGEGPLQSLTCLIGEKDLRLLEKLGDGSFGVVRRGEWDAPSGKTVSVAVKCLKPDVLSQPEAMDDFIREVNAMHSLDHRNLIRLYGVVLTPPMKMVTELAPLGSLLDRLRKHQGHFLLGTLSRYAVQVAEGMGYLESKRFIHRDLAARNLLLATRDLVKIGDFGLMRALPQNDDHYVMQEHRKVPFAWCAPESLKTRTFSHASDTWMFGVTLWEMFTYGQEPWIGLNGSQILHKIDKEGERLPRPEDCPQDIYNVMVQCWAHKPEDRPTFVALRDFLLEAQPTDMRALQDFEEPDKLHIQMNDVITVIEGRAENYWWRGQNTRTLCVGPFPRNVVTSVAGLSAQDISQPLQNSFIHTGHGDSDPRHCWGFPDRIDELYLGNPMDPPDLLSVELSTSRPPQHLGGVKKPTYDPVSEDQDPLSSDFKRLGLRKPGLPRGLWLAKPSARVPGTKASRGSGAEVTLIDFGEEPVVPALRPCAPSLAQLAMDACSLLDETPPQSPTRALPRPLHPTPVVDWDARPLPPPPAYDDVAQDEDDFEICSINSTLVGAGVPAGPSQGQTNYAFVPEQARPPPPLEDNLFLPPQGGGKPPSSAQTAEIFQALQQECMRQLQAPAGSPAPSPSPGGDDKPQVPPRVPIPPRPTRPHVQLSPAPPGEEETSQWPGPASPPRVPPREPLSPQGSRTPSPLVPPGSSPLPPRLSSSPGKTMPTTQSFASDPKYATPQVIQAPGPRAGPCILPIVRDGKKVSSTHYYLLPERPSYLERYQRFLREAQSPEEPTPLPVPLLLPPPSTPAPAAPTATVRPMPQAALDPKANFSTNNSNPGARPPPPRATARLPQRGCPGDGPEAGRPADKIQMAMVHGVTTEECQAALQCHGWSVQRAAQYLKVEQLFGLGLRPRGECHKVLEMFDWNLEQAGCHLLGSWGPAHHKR

[5] = biological target: T1, Alpha-2B adrenergic receptor (Homo sapiens) (UniProt P18089); settings: Compound concentration 10.0 uM
T1 sequence (whole entry): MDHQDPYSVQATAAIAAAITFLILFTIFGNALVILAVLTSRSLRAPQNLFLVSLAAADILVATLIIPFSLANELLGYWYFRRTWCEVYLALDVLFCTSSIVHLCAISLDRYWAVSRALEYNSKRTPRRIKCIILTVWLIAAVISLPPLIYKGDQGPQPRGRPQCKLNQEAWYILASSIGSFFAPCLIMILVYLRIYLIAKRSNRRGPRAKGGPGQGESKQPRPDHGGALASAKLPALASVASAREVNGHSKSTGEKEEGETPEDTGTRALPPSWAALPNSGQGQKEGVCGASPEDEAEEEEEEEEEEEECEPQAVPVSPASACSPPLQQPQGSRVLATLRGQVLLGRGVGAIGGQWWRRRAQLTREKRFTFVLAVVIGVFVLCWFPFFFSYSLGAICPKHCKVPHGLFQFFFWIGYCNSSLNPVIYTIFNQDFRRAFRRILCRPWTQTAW

[6] = biological target: cGMP-specific 3',5'-cyclic phosphodiesterase (Homo sapiens) (UniProt O76074); settings: Compound concentration 10.0 uM
[7] = biological target: Cyclin-dependent kinase 2/cyclin A (Homo sapiens) (UniProt P24941+P20248+P78396); assay: CDK2/cyclinA(h) Millipore kinase panel; assay type: protein-complex assay; settings: Compound concentration 1.0 uM
[8] = biological target: Mitogen-activated protein kinase 14 (Homo sapiens) (UniProt Q16539); assay: SAPK2a(h) Millipore kinase panel; settings: Compound concentration 1.0 uM
[9] = biological target: Vascular endothelial growth factor receptor 2 (Homo sapiens) (UniProt P35968); assay: KDR(h) Millipore kinase panel; settings: Compound concentration 1.0 uM
[10] = biological target: Serine/threonine-protein kinase mTOR (Homo sapiens) (UniProt P42345); assay: mTOR(h) Millipore kinase panel; settings: Compound concentration 1.0 uM
[11] = biological target: Acetylcholinesterase (Homo sapiens) (UniProt P22303); settings: Compound concentration 10.0 uM
Sequence of Acetylcholinesterase (Homo sapiens) (P22303 whole entry): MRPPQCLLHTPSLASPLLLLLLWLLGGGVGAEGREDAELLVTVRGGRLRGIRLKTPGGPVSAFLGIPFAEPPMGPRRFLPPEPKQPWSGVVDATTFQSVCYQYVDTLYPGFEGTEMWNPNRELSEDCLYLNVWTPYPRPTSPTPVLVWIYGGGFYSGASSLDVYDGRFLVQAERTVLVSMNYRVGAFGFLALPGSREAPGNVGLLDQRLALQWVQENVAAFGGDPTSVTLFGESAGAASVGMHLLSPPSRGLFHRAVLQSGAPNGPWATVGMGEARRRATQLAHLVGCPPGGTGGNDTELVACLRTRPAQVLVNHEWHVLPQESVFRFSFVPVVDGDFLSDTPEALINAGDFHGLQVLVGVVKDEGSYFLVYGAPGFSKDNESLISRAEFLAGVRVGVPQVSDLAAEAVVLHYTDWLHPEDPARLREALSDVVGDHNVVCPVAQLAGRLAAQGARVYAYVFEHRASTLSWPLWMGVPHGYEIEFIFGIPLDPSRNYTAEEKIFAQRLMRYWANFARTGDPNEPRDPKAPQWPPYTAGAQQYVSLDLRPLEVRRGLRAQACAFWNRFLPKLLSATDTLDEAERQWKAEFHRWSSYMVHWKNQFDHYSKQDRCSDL

[12] = biological target: Carbonic anhydrase 2 (Homo sapiens) (UniProt P00918); assay: Inhibition of Carbonic Anhydrase II at compound concentration of 10.0 uM in the Eurofins-Panlabs enzyme assay (Eurofins_assay_112020); parameters: substrate with concentration; settings: Compound concentration 10.0 uM
[13] = biological target: cAMP-dependent protein kinase catalytic subunit beta (Homo sapiens) (UniProt P22694); assay: PKACbeta(h) Millipore kinase panel; settings: Compound concentration 1.0 uM
[14] = biological target: Tyrosine-protein kinase TXK (Homo sapiens) (UniProt P42681); assay: Txk(h) Millipore kinase panel; settings: Compound concentration 1.0 uM
[15] = biological target: Insulin receptor-related protein (Homo sapiens) (UniProt P14616); assay: IRR(h) Millipore kinase panel; settings: Compound concentration 1.0 uM
[16] = biological target: Serine/threonine-protein kinase Nek7 (Homo sapiens) (UniProt Q8TDX7); assay: NEK7(h) Millipore kinase panel; settings: Compound concentration 1.0 uM
[17] = biological target: Protein kinase C zeta type (Homo sapiens) (UniProt Q05513); assay: PKCzeta(h) Millipore kinase panel; settings: Compound concentration 1.0 uM
[18] = biological target: Testis-specific serine/threonine-protein kinase 1 (Homo sapiens) (UniProt Q9BXA7); assay: TSSK1(h) Millipore kinase panel; settings: Compound concentration 1.0 uM
Sequence of Testis-specific serine/threonine-protein kinase 1 (Homo sapiens) (Q9BXA7 whole entry): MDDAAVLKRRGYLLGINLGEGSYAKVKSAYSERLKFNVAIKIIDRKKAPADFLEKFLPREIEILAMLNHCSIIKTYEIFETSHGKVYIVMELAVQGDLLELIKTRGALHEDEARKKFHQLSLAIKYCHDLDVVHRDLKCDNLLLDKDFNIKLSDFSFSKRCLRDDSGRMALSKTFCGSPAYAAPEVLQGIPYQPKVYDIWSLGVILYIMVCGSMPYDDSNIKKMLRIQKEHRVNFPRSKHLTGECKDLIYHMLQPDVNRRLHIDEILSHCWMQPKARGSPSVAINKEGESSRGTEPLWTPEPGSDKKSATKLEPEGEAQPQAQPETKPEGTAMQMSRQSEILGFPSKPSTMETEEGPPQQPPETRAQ

[19] = biological target: Angiopoietin-1 receptor (Homo sapiens) (UniProt Q02763); assay: Tie2(h) Millipore kinase panel; settings: Compound concentration 1.0 uM
[20] = biological target: [Pyruvate dehydrogenase (acetyl-transferring)] kinase isozyme 4, mitochondrial (Homo sapiens) (UniProt Q16654); assay: PDHK4(h) Millipore kinase panel; settings: Compound concentration 1.0 uM
[21] = biological target: G protein-coupled receptor kinase 3 (Homo sapiens) (UniProt P35626); assay: GRK3(h) Millipore kinase panel; settings: Compound concentration 1.0 uM
[22] = biological target: Dual specificity tyrosine-phosphorylation-regulated kinase 3 (Homo sapiens) (UniProt O43781); assay: DYRK3(h) Millipore kinase panel; settings: Compound concentration 1.0 uM
Sequence of Dual specificity tyrosine-phosphorylation-regulated kinase 3 (Homo sapiens) (O43781 whole entry): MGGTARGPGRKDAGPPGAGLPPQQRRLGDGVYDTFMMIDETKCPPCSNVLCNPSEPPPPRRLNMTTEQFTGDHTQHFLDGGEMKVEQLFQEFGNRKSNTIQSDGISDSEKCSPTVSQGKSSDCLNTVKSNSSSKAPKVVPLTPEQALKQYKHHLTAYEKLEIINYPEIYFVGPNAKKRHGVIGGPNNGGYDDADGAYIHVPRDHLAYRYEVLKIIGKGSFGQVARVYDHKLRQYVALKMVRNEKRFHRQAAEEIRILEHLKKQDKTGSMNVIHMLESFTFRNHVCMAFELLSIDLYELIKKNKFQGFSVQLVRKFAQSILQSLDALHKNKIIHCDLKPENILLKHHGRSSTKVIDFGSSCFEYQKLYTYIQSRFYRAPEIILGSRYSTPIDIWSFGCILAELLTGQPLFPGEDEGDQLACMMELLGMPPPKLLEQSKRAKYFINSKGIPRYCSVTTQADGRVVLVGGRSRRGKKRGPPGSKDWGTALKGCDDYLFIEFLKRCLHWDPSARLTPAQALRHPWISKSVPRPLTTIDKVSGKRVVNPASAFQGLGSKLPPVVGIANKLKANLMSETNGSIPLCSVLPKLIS

[23] = biological target: Protein kinase C epsilon type (Homo sapiens) (UniProt Q02156); assay: PKCepsilon(h) Millipore kinase panel; settings: Compound concentration 1.0 uM
Sequence of Protein kinase C epsilon type (Homo sapiens) (Q02156 whole entry): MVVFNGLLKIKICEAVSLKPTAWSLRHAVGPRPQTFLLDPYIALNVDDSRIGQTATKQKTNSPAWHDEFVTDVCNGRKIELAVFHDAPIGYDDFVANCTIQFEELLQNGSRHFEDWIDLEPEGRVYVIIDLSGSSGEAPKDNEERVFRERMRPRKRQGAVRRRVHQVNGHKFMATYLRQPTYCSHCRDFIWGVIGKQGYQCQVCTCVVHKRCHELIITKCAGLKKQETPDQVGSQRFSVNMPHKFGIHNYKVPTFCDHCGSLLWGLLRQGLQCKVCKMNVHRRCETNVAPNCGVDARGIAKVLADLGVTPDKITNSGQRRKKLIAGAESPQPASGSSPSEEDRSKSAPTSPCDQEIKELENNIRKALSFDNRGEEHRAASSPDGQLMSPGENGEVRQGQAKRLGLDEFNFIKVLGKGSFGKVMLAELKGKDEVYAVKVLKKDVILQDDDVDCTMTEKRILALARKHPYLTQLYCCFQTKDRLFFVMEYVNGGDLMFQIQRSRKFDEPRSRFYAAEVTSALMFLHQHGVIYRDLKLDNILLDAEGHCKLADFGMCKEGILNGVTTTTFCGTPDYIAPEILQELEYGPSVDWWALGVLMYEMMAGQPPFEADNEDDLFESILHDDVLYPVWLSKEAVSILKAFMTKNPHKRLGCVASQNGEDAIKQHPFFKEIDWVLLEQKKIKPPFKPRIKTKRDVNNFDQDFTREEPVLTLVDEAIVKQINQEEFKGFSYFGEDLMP

[24] = biological target: Casein kinase II subunit alpha (Homo sapiens) (UniProt P68400); assay: CK2alpha1(h) Millipore kinase panel; settings: Compound concentration 1.0 uM
[25] = biological target: T2, 5-hydroxytryptamine receptor 1A (Homo sapiens) (UniProt P08908); settings: Compound concentration 10.0 uM
T2 sequence (whole entry): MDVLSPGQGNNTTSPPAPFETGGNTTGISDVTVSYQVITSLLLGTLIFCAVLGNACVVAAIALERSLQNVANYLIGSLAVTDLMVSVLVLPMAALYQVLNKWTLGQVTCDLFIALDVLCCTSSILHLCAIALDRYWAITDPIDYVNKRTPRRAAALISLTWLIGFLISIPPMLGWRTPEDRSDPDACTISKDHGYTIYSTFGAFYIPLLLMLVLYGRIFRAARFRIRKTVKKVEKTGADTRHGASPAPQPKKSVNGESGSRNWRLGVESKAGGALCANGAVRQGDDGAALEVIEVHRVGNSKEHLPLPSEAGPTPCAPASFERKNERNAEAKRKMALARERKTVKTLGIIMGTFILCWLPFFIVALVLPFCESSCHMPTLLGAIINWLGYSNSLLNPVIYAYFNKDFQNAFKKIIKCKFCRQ

[26] = biological target: Serine/threonine-protein kinase NIM1 (Homo sapiens) (UniProt Q8IY84); assay: NIM1(h) Millipore kinase panel; settings: Compound concentration 1.0 uM
Sequence of Serine/threonine-protein kinase NIM1 (Homo sapiens) (Q8IY84 whole entry): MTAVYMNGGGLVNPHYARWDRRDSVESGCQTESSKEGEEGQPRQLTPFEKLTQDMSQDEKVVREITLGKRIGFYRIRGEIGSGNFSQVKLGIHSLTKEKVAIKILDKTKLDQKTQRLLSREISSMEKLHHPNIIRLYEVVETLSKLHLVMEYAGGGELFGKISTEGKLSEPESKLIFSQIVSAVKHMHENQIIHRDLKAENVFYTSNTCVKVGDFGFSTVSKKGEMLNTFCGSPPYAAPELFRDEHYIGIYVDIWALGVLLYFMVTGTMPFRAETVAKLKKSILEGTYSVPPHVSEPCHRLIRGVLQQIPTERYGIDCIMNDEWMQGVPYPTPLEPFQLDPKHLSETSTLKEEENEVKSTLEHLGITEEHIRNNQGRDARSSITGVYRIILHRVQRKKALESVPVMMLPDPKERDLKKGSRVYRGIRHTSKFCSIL

[27] = biological target: Mu-type opioid receptor (Homo sapiens) (UniProt P35372); settings: Compound concentration 10.0 uM
Sequence of Mu-type opioid receptor (Homo sapiens) (P35372 whole entry): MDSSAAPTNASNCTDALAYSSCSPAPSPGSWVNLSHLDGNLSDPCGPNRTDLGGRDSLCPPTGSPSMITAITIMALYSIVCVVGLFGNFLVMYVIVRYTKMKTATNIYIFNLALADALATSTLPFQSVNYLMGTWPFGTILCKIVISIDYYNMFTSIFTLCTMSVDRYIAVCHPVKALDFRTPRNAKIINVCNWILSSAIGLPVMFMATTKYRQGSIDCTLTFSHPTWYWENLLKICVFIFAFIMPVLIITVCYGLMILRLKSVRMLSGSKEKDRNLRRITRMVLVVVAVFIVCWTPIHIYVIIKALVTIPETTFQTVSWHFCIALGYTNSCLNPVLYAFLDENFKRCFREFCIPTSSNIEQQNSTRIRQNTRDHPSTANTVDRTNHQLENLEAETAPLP

[28] = biological target: Serine/threonine-protein kinase ICK (Homo sapiens) (UniProt Q9UPZ9); assay: ICK(h) Millipore kinase panel; settings: Compound concentration 1.0 uM
[29] = biological target: Ribosomal protein S6 kinase alpha-4 (Homo sapiens) (UniProt O75676); assay: MSK2(h) Millipore kinase panel; settings: Compound concentration 1.0 uM
[30] = biological target: cGMP-dependent protein kinase 2 (Homo sapiens) (UniProt Q13237); assay: PRKG2(h) Millipore kinase panel; settings: Compound concentration 1.0 uM
[31] = biological target: 5-hydroxytryptamine receptor 5A (Homo sapiens) (UniProt P47898); settings: Compound concentration 10.0 uM
[32] = biological target: Wee1-like protein kinase 2 (Homo sapiens) (UniProt P0C1S8); assay: Wee1B(h) Millipore kinase panel; settings: Compound concentration 1.0 uM
[33] = biological target: Beta-adrenergic receptor kinase 1 (Homo sapiens) (UniProt P25098); assay: GRK2(h) Millipore kinase panel; settings: Compound concentration 1.0 uM
[34] = biological target: Protein kinase C iota type (Homo sapiens) (UniProt P41743); assay: PKCiota(h) Millipore kinase panel; settings: Compound concentration 1.0 uM
[35] = biological target: Tyrosine-protein kinase SYK (Homo sapiens) (UniProt P43405); assay: Syk(h) Millipore kinase panel; settings: Compound concentration 1.0 uM
[36] = biological target: Serine/threonine-protein kinase tousled-like 1 (Homo sapiens) (UniProt Q9UKI8); assay: TLK1(h) Millipore kinase panel; settings: Compound concentration 1.0 uM
Sequence of Serine/threonine-protein kinase tousled-like 1 (Homo sapiens) (Q9UKI8 whole entry): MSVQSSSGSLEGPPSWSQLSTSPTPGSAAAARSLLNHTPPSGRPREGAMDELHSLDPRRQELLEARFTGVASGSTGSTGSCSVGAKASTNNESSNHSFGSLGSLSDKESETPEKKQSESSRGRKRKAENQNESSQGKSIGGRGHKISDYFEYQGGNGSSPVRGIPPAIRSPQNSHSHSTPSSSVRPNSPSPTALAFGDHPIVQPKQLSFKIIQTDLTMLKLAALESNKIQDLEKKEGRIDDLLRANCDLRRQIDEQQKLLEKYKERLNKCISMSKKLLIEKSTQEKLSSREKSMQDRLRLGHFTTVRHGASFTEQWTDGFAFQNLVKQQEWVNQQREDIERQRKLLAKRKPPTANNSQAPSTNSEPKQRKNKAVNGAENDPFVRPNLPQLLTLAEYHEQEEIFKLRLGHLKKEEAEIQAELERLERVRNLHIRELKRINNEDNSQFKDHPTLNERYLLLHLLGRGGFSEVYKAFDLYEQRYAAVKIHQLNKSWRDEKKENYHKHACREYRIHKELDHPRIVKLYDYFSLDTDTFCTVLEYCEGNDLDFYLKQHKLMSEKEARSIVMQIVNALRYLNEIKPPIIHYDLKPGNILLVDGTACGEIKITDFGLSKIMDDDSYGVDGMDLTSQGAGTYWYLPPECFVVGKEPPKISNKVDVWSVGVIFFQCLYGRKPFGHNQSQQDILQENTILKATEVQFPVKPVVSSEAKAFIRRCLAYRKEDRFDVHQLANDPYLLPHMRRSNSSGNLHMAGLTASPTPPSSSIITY

## CC[C@@H](Nc1c(C#N)c(-c2ccc(-c3cccc(C)c3F)cc2)nc2cnccc12)C(=O)O [BAY-091]
[1]
  inhibition: 36%
[2]
  inhibition: 42%
[3]
  inhibition: -2.13%
[4]
  inhibition: 10.5%
[5]
  inhibition: -2%
[6]
  inhibition: 62%
[7]
  inhibition: -1.5%
[8]
  inhibition: 2.76%
[9]
  inhibition: 50.1%
[10]
  inhibition: 14.8%
[11]
  inhibition: 27%
[12]
  inhibition: -6%
[13]
  inhibition: 6.73%
[14]
  inhibition: -2.9%
[15]
  inhibition: 6.25%
[16]
  inhibition: 5.49%
[17]
  inhibition: -2.41%
[18]
  inhibition: 14.2%
[19]
  inhibition: 12.8%
[20]
  inhibition: 9.88%
[21]
  inhibition: 8.23%
[22]
  inhibition: 7.66%
[23]
  inhibition: -4.26%
[24]
  inhibition: 3.34%
[25]
  inhibition: -4.91%
[26]
  inhibition: 12%
[27]
  inhibition: 1.43%
[28]
  inhibition: 14.8%
[29]
  inhibition: -3.96%
[30]
  inhibition: 12.7%
[31]
  inhibition: 14.8%
[32]
  inhibition: 9.64%
[33]
  inhibition: 1.9%
[34]
  inhibition: 5.85%
[35]
  inhibition: 10.4%
[36]
  inhibition: -0.87%
